Measurements reported in article PMC8591608, “DNDI-6148: A Novel Benzoxaborole Preclinical Candidate for the Treatment of Visceral Leishmaniasis” (Journal of Medicinal Chemistry, 2021).
Like-named read-outs stand apart in the source and are kept apart here.

Assays:
CYP2C19 = CYP2C19 (Homo sapiens, UniProt P33261); test: CYP inhibition, CYP2C19; assay type: in vitro ADME; settings: human liver microsomes
Description: (§1) The study was conducted by WuXi AppTec, Co., China, using the time-dependent (TDI) method. […] Following incubation with substrates (phenacetin for 1A2, diclofenac for 2C9, S-(+) mephenytoin for 2C19, dextromethorphan for 2D6, and midazolam or testosterone for 3A4), reactions were stopped by adding ice-cold acetonitrile, the samples were analyzed for the formation of metabolites by LC-MS/MS, and the percentage of inhibition was determined.

[1] = Liver microsome stability, rat; assay type: in vitro ADME; settings: Sprague-Dawley, rat liver microsomes, pH 7.4
Description: Tests were performed by WuXi AppTec, China. Test compounds (at 1 μM) or positive controls (testosterone, propafenone, and diclofenac) were incubated at 37 °C with liver microsomes from Balb/c mouse, golden (Syrian) hamster, Sprague-Dawley rat, Beagle dog, or human in the presence of a NADPH regenerating system and phosphate buffer (100 mM, pH 7.4) at 0.4 or 0.8 mg/mL microsomal protein. The samples were removed at time intervals from 0 to 60, 90, or 120 min and immediately mixed with cold methanol supplemented or not with acid (3% formic acid) and centrifuged prior to analysis by LC-MS/MS using tolbutamide or propranolol as internal standards.

CYP3A4 = CYP3A4 (Homo sapiens, UniProt P08684); test: CYP inhibition, CYP3A4; assay type: in vitro ADME; settings: human liver microsomes
Chain of CYP3A4 (P08684 2-503 limits assumed): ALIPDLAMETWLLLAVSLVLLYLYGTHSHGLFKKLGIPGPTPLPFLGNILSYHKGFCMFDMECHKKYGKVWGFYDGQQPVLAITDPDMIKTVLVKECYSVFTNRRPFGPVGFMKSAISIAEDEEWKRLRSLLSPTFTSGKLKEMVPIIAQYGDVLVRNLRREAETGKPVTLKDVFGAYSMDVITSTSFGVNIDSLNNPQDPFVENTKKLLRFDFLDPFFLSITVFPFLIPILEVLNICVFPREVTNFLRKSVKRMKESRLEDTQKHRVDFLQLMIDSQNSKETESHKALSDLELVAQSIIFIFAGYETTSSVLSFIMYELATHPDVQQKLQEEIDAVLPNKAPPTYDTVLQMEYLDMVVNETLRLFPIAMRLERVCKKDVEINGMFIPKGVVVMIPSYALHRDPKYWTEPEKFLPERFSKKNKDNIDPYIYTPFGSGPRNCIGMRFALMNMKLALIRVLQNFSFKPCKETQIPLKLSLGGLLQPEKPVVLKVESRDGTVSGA
Description: as §1

[2] = tested on: T. brucei trypanosomes maintaining a mutated version of CPSF3 (Asn232His); test: Drug sensitivity, T. brucei with mutated CPSF3; assay type: cell-based
Description: (§2) The clonal L. donovani cell line LdBOB (derived from MHOM/SD/62/1S-CL2D) was grown as promastigotes at 28 °C, as described previously. Bloodstream form T. brucei MiTat 1.2 clone 221a and its derived subline, 2T1, were cultured at 37 °C in the presence of 5% CO2 in HMI9-T medium, as described previously. T. brucei cell lines overexpressing CPSF3 and overexpressing a mutated version of CPSF3 (Asn232His) were generated as part of a previous study and cultured as described.[19]
(§3) Drug sensitivity assays with wild-type and transgenic T. brucei and L. donovani cell lines were carried out as previously described.[31],[32]

[3] = Metabolite identification in microsomes; assay type: in vitro ADME, rat, mouse, dog, human, hamster
Description: Metabolite identification studies were conducted at WuXi AppTec, China. DNDI-6148 was incubated at 10 μM in the presence of Beagle dog and Sprague-Dawley rat liver microsomes (1 mg/mL) for 60 min. Following precipitation with a solution of formic acid and acetonitrile, metabolites were identified by LC-UV-MSn (n = 1–2).

CYP1A2 = CYP1A2 (Homo sapiens, UniProt P05177); test: CYP inhibition, CYP1A2; assay type: in vitro ADME; settings: human liver microsomes
Chain of CYP1A2 (P05177 whole entry): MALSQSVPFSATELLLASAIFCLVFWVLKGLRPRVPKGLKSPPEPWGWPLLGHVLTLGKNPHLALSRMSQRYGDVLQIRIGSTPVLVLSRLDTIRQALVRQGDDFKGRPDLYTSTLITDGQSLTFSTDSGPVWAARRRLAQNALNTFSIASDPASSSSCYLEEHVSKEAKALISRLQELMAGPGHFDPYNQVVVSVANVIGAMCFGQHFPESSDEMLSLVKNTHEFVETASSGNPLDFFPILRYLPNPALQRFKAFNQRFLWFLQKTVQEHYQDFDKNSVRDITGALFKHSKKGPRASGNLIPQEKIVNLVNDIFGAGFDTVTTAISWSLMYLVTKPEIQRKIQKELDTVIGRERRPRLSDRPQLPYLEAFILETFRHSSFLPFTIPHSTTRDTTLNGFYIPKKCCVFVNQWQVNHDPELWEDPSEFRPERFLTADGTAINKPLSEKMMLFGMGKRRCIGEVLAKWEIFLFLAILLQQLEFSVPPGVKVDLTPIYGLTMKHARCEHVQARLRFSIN
Description: as §1

[4] = tested on: panel of 88 targets (Cerep panel); test: Off-target panel (Eurofins Cerep panel); settings: at a concentration of 10 μM
[5] = Hepatocyte stability, rat; assay type: in vitro ADME; settings: Sprague-Dawley, cryopreserved rat hepatocytes
Description: Tests were performed by WuXi AppTec, China. Following a viability check of cryopreserved hepatocytes from Sprague-Dawley rat, Beagle dog, or human, test compounds (at 1 μM) or positive controls 7-ethoxycoumarin and 7-hydroxycoumarin (at 3 μM) were incubated at 37 °C, 5% CO2 with hepatocytes in Williams’ Medium E. Following incubation of 15, 30, 60, 90, 120, 180, and 240 min, reactions were stopped by the addition of acetonitrile, the samples were centrifuged, and LC-MS/MS analysis was conducted using tolbutamide as an internal standard.

[6] = Human PK and dose prediction by allometric scaling
[7] = tested on: trypanosomes overexpressing the wild-type version of CPSF3; test: Drug sensitivity, T. brucei overexpressing CPSF3; assay type: cell-based
Description: as §2, §3

L. infantum = L. infantum mouse model of VL; assay type: in vivo
[8] = In vivo pharmacokinetics in dog; set-up: species or system male Beagle dogs; settings: for MRT inf: read-out: MRT0-inf; for MRT last: read-out: MRT0-last
Description: DNDI-6148 was administrated intravenously at 1 mg/kg and orally at 5 mg/kg to male Beagle dogs. The formulation for the i.v. leg was 2% ethanol, 1.0 mol equiv NaOH, dextrose (5% solution) filtered, and adjusted to pH 7, and for the p.o. leg, the formulation was 2% ethanol, 1.0 mol equiv NaOH, and dextrose (5% solution). The K2-EDTA anticoagulant was added to blood samples collected at predose, 0.033 (i.v. only), 0.083 (p.o. only), 0.25, 0.5, 1, 3, 6, 9, and 24 h, and were stabilized with phosphoric acid (1% final) before analysis by LC-MS/MS. PK parameters were calculated using WinNonlin software (version 6.3).

[9] = allometric scaling from rat and dog PK data
[10] = male, Beagle, plasma, IV 1.0 mg/kg, mean
[11] = male, Beagle, plasma, PO 5 mg/kg, mean
[12] = male, Beagle, plasma, iv, i.v. 1 mg/kg

Chain of CYP2C19 (P33261 whole entry): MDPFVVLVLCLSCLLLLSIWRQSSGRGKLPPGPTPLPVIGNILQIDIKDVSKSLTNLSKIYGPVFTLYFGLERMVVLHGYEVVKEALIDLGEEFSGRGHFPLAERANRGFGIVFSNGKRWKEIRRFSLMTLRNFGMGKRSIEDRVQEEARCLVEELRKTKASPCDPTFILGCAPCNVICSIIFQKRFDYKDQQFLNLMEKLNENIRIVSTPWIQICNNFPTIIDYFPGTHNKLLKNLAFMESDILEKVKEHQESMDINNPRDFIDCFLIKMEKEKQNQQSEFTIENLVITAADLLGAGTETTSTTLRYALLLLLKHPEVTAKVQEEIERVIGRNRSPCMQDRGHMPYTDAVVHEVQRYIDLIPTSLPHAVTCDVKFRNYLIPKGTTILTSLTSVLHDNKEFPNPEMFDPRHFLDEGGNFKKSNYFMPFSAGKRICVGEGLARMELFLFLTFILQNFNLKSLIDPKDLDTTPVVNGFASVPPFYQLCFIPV

In the case of `Cc1c(C(=O)Nc2ccc3c(c2)B(O)OC3)nnn1-c1ccccn1` [Compound 23, N-(1-Hydroxy-1,3-dihydrobenzo[c][1,2]oxaborol-6-yl)-5-methyl-1-(pyridin-2-yl)-1H-1,2,3-triazole-4-carboxamide], the IC50 (CYP2C19) is reported as greater than 50000 nM, the microsomal CLint at 1 μM [1] is reported as less than 11.9 µL/min/mg and the IC50 (CYP3A4) is reported as greater than 50000 nM. For the same molecule, the EC50 ([2]; Trypanosoma brucei) was 90 ± 3.4 nM, the “fold less sensitive compared to wild-type” value ([2]; bloodstream trypanosomes, CPSF3 Asn232His) was 1.8 fold and the reactive metabolite formation ([3]; microsomes, any species) was “no evidence of reactive metabolite formation”. For the same molecule, the “metabolism in rat microsomes” value ([3]; rat microsomes) was “No metabolism was detected”, the IC50 (CYP1A2) was greater than 50000 nM and the “activity in panel of 88 targets” value [4] was no more than 50%. The hepatocyte CLint at 1 μM [5] was 0.7 µL/min/1e6 cells, the “predicted efficacious human dose” value ([6]; BID dosing in humans) was 3 to 20 mg/kg and the “predicted bioavailability in humans” value [6, 9] was 40–90%. The “predicted clearance in humans” value [6, 9] was 1 to 4 mL/min/kg, the EC50 ([7]; Trypanosoma brucei) was 172 ± 3 nM and the “fold less sensitive compared to wild-type” value ([7]; trypanosomes overexpressing wild-type CPSF3) was 2.9 fold. The “reduction in liver parasite burden following 5 days of p.o. dosing BID, L. infantum” value (L. infantum; 25 mg/kg BID) was 96.1%, the “reduction in liver parasite burden following 5 days of p.o. dosing BID, L. infantum” value (L. infantum; 50 mg/kg BID) was 98.6% and the AUC0-inf/AUC0-last ([8]; IV 1.0 mg/kg, mean) was 102%. For the same molecule, the Tlast ([8]; IV 1.0 mg/kg, mean) was 9.00 h, the AUC0-inf/AUC0-last ([8]; PO 5 mg/kg, mean) was 103% and the Tlast ([8]; PO 5 mg/kg, mean) was 9.00 h. The concentration at 0.033 h ([8]; male, Beagle, plasma, IV 1.0 mg/kg, 0.033 h, mean) was 1560 ng/mL, the concentration at 5 min [8, 10] was 1120 ng/mL and the concentration at 0.25 h [8, 10] was 644 ng/mL. For the same molecule, the concentration at 0.5 h [8, 10] was 534 ng/mL, the concentration at 1 h [8, 10] was 373 ng/mL and the concentration at 3 h [8, 10] was 97.7 ng/mL. It also gave a concentration at 6 h [8, 10] of 23 ng/mL, a concentration at 9 h [8, 10] of 8.8 ng/mL and a concentration at 24 h [8, 10] of 0.9 ng/mL. The AUC(0-inf) [8, 10] was 1270 ng·h/mL, the AUC(0-t) [8, 10] was 1240 ng·h/mL and the C0 [8, 10] was 1930 ng/mL. For the same molecule, the half-life [8, 10] was 1.49 h, the MRT inf [8, 10] was 1.66 h and the MRT last [8, 10] was 1.51 h. The Vd ([8]; male, Beagle, plasma, IV 1.0 mg/kg, mean, read-out: Vdss) was 1.31 L/kg, the concentration at 5 min [8, 11] was 266 ng/mL and the concentration at 0.25 h [8, 11] was 1130 ng/mL. It also gave a concentration at 0.5 h [8, 11] of 881 ng/mL, a concentration at 1 h [8, 11] of 814 ng/mL and a concentration at 3 h [8, 11] of 357 ng/mL. It also gave a concentration at 6 h [8, 11] of 54.8 ng/mL, a concentration at 9 h [8, 11] of 25.5 ng/mL and a concentration at 24 h [8, 11] of 0.9 ng/mL. It also gave an AUC(0-inf) [8, 11] of 2530 ng·h/mL, an AUC(0-t) [8, 11] of 2470 ng·h/mL and a Cmax [8, 11] of 1220 ng/mL. It also gave a Tmax [8, 11] of 0.63 h, a half-life [8, 11] of 1.46 h and an MRT inf [8, 11] of 2.42 h. It also gave an MRT last [8, 11] of 2.19 h, a Vd at 24 h [8, 12] of 1.3 L/kg and a clearance [8, 12] of 13.7 mL/min/kg. It also gave a half-life at 24 h [8, 12] of 1.5 h and a bioavailability at 24 h ([8]; male, Beagle, plasma, po, p.o. 5 mg/kg) of 39%.
